According to the supplement of paper PMC10307832:

Columns and labels:
Assay in all cases: relative viability (nuclei count vs DMSO), 5 days (fraction); higher = more cells survive
[1] = compound: COc1cccc2c1C(=O)c1c(O)c3c(c(O)c1C2=O)C[C@@](O)(C(=O)CO)C[C@@H]3O[C@H]1C[C@H](N)[C@H](O)[C@H](C)O1 [Doxorubicin] + CS(=O)(=O)CCNCc1ccc(-c2ccc3ncnc(Nc4ccc(OCc5cccc(F)c5)c(Cl)c4)c3c2)o1 [Lapatinib] (partner 2 µM)
How it was run: (§1)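 Five library-drug doses in √10 steps were combined with a fixed anchor-drug dose, or a single drug was given alone, by pin tool to lung cancer cell lines in 1536-well plates the day after seeding. Nuclei were stained and counted after 5 days. Relative viability is the nuclei count in treated wells over that in vehicle wells, taken as the median of duplicate plates.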

[2] = compound: COC1=C(C=C(C=C1)C2=CC3=NC=CN3C(=N2)NC4=C(C=CC=N4)C(=O)N)OC [BAY61-3606] + CS(=O)(=O)CCNCc1ccc(-c2ccc3ncnc(Nc4ccc(OCc5cccc(F)c5)c(Cl)c4)c3c2)o1 [Lapatinib] (partner 2 µM)
How it was run: as §1

[3] = compound: COc1cccc2c1C(=O)c1c(O)c3c(c(O)c1C2=O)C[C@@](O)(C(=O)CO)C[C@@H]3O[C@H]1C[C@H](N)[C@H](O)[C@H](C)O1 [Doxorubicin] + Cc1nc(NC(=O)N2CCC[C@H]2C(N)=O)sc1-c1ccnc(C(C)(C)C(F)(F)F)c1 [Alpelisib] (partner 2 µM)
How it was run: as §1

[4] = compound: COC1=C(C=C(C=C1)C2=CC3=NC=CN3C(=N2)NC4=C(C=CC=N4)C(=O)N)OC [BAY61-3606] + CS(=O)(=O)N1CCN(Cc2cc3nc(-c4cccc5[nH]ncc45)nc(N4CCOCC4)c3s2)CC1 [Pictilisib] (partner 1 µM)
How it was run: as §1

| Cell Line | relative viability ([1]; first compound 0.001 µM) | relative viability ([1]; first compound 0.003162 µM) | relative viability ([1]; first compound 0.01 µM) | relative viability ([1]; first compound 0.03162 µM) | relative viability ([1]; first compound 0.1 µM) | relative viability ([2]; first compound 0.02 µM) | relative viability ([2]; first compound 0.06325 µM) | relative viability ([2]; first compound 0.2 µM) | relative viability ([2]; first compound 0.6325 µM) | relative viability ([2]; first compound 2 µM) | relative viability ([3]; first compound 0.001 µM) | relative viability ([3]; first compound 0.003162 µM) | relative viability ([3]; first compound 0.01 µM) | relative viability ([3]; first compound 0.03162 µM) | relative viability ([3]; first compound 0.1 µM) | relative viability ([4]; first compound 0.02 µM) | relative viability ([4]; first compound 0.06325 µM) | relative viability ([4]; first compound 0.2 µM) | relative viability ([4]; first compound 0.6325 µM) | relative viability ([4]; first compound 2 µM) |
| --- | --- | --- | --- | --- | --- | --- | --- | --- | --- | --- | --- | --- | --- | --- | --- | --- | --- | --- | --- | --- |
| NCI-H1299 | 0.988 | 0.973 | 0.955 | 0.889 | 0.514 | 0.945 | 0.98 | 0.97 | 0.963 | 0.953 | 1.06 | 1.12 | 1.08 | 1.07 | 1.06 | 0.822 | 0.854 | 0.844 | 0.918 | 0.503 |
| H3255 | 0.261 | 0.262 | 0.247 | 0.259 | 0.228 | 0.257 | 0.203 | 0.274 | 0.249 | 0.229 | 0.698 | 0.656 | 0.562 | 0.58 | 0.404 | 0.516 | 0.432 | 0.463 | 0.467 | 0.447 |
| 201T | 0.942 | 0.968 | 1.04 | 1.01 | 1.03 | 1.08 | 1.01 | 1.11 | 1.03 | 0.996 | 1.02 | 0.969 | 0.985 | 0.969 | 1.02 | 0.716 | 0.677 | 0.761 | 0.703 | 0.744 |
| NCI-H2228 | 0.971 | 0.962 | 0.65 | 0.187 | 0.119 | 1.34 | 1.01 | 1.27 | 1 | 0.894 | 0.724 | 0.822 | 0.647 | 0.393 | 0.198 | 0.432 | 0.34 | 0.421 | 0.505 | 0.341 |
| IA-LM | 0.845 | 0.957 | 0.638 | 0.18 | 0.112 | 0.92 | 0.841 |  | 0.981 | 0.58 | 0.675 | 0.742 | 0.669 | 0.544 | 0.427 | 0.351 | 0.393 | 0.442 | 0.54 | 0.496 |
| CAL-12T | 0.597 | 0.656 | 0.517 | 0.67 | 0.404 | 0.805 | 0.596 | 0.613 | 0.768 | 0.637 | 1.23 | 1.41 | 0.587 | 0.26 | 0.142 | 0.553 | 0.348 | 0.414 | 0.392 | 0.346 |
| NCI-H661 | 0.506 | 0.515 | 0.492 | 0.498 | 0.493 | 0.575 | 0.534 | 0.415 | 0.541 | 0.371 | 0.589 | 0.702 | 0.511 | 0.592 | 0.469 | 0.422 | 0.415 | 0.376 | 0.383 | 0.408 |
| NCI-H1792 | 0.942 | 0.911 | 0.874 | 0.865 | 0.89 | 0.904 | 0.951 | 0.949 | 0.902 | 0.95 | 0.794 | 0.836 | 0.538 | 0.679 | 0.548 | 0.293 | 0.176 | 0.328 | 0.363 | 0.303 |
| NCI-H2085 | 0.745 | 0.85 | 0.763 | 0.652 | 0.608 | 0.865 | 0.784 | 0.777 | 0.977 | 0.71 | 0.936 | 1 | 0.992 | 0.739 | 0.686 | 0.376 | 0.487 | 0.499 | 0.459 | 0.601 |
| NCI-H2023 | 0.226 | 0.734 | 0.252 | 0.134 | 0.11 | 0.917 | 0.805 | 0.869 | 1.45 | 0.591 | 0.595 | 0.617 | 0.524 | 0.203 | 0.0842 | 0.275 | 0.264 | 0.277 | 0.251 | 0.206 |
